Data set [1] deals with recombinant human DHODH protein (Homo sapiens, UniProt Q02127). Kind of data set: In vitro DHODH enzyme inhibition assay. Conditions: in words. It is filed as biochemical.
The test system of data set [2] is Lys-GFP-ER-HoxA9 cells. Kind of data set: Myeloid differentiation assay in Lys-GFP-ER-HoxA9 cells (GFP / CD11b flow cytometry). Particulars: for myeloid differentiation: ER-HoxA9 cellular differentiation assay, in words; for effect of uridine supplementation of the media on differentiation: uridine rescue, also U937 and THP1. On the technique in general: A flow cytometer gives signals particle by particle.
Experimental: (See Example 20 for assay details.) After four days of compound treatment, cells were assessed by high-throughput flow cytometry for viability based on forward and side-scatter properties, and for differentiation as determined by the endogenous expression of GFP and cell-surface expression of CD11b (APC fluorescence, FIG. 2C).
The cell line used was ERHoxA9 myeloblast cell line. […] Removal of beta-estradiol from the culture media inactivates ERHoxA9 and the cells are freed from the HoxA9-differentiation arrest and undergo normal myeloid differentiation.
Cells were cultured in RPMI (Cellgro) supplemented with 10% fetal bovine serum (Serum Source Int'l), penicillin/streptomycin, L-glutamine (Omega Scientific), 5% conditioned media containing stem cell factor (SCF), and 0.5 μM beta-estradiol (Sigma). On day 1, 25 μL of complete media supplemented with 0.04% Pluronic F-68 (GIBCO) was added to a sterile 384 well culture plate (Greiner) followed by the addition of 0.2 μL of test compound in DMSO (Sigma). Wells contained complete media supplemented with Pluronic F-68 and the 5 μM of the estrogen receptor antagonist fulvestrant that served as a positive control for differentiation. 25 μL of cells (1.2×10^5/ml) in complete media were added and the plates were incubated (37° C./5% CO2) for 4 days. Final concentrations of components were 3,000 cells/well, 4 μM test compound, and 0.4% DMSO.
On day 5, plates were harvested as follows: 5 μL of an antibody/bead solution consisting of a 1:100 dilution of APC-conjugated anti-mouse CD11b (eBioscience, cloneM1/70) and a 1/500 dilution of polystyrene beads (Spherotech) were added to wells and the plates were incubated for 20 min prior to sampling using the HyperCyt® high throughput flow cytometry platform.
Cells were cultured in RPMI (Cellgro) supplemented with 10% fetal bovine serum (Serum Source Int'l), penicillin/streptomycin, L-glutamine (Omega Scientific), 5% conditioned media containing stem cell factor (SCF), and 0.5 μM beta-estradiol (Sigma, E2758). On day 1, 25 μL of complete media supplemented with 0.04% Pluronic F-68 (GIBCO) was added to a sterile 384 well culture plate (Greiner) followed by the addition of 0.2 μL of compound dilution arrays in DMSO. Some wells contained complete media supplemented with Pluronic F-68 and 5 μM of the estrogen receptor antagonist fulvestrant that served as a positive control for differentiation. 25 μL of cells (1.2×10^5/ml) in complete media were added and the plates were incubated (37° C./5% CO2) for 4 days. Final concentrations of components were 3,000 cells/well and 0.4% DMSO.

The test system of data set [3] is acute promyelocytic leukemia (APL). Conditions: ATRA incorporated into treatment regimens; from 20%; cited from earlier work.
In data set [4] the test system is Lys-GFP-ER-HoxA9 cells. Kind of data set: Cellular metabolite analysis after DHODH inhibition in vitro. Conditions: 48 hours treatment. It is filed as cell-based, murine. From the text:
DHODH catalyzes the conversion of dihydroorotate (DHO) to orotate in the endogenous synthesis of uridine monophosphate (UMP, FIG. 5A).

Data set [5] concerns protein O-GlcNAc modification. Kind of data set: Immunoblot of protein O-GlcNAc modification. It is filed as cell-based. From the text: FIG. 5E is an immunoblot.
DHODH and OMPD inhibitors lead to depletion of uridine and to myeloid differentiation in model systems. […] (See, Example 24.) Without intending to be bound by theory, part of the differentiation effect may be due to depletion of UDP-GlcNAc leading to decreased O-linked N-acetylglycosylation (GlcNAc) post-translational modification of proteins.
Background: Immunoblotting shows a protein as a band on a membrane.

A short description of data set [6]: Solubility. It is filed as physicochemical. Here is the method:
Solubility was determined in phosphate buffered saline (PBS) pH 7.4 with 1% DMSO. Each compound was prepared in duplicate at 100 μM in both 100% DMSO and PBS with 1% DMSO. Compounds were allowed to equilibrate at room temperature with a 250 rpm orbital shake for 24 hours. After equilibration, samples were analyzed by UPLC-MS (Waters, Milford, Mass.) with compounds detected by SIR detection on a single quadrupole mass spectrometer. The DMSO samples were used to create a two point calibration curve to which the response in PBS was fit.

Data set [7] in a line: Bioavailability. Conditions: in vivo.
In data set [8] the test system is U937 cells. Nature of the data set: Differentiation (CD11b upregulation) in U937 human leukemia cell line. It is filed as cell-based. Here is the method: (§1) The THP-1 and U937 human leukemic cell lines were used within the same procedure as in the primary assay, except using human leukemic cell lines. These are factor-independent cell lines and estrogen-independent cell lines, such that cells were grown simply in RPMI supplemented with 10% fetal bovine serum.

Data set [9] deals with THP1 cells. Kind of data set: Differentiation (CD11b upregulation) in THP1 human leukemia cell line. It is filed as cell-based. Here is the method: as §1
Data set [10] deals with HoxA9-Meis1 leukemia cells. Kind of data set: Syngeneic HoxA9 and Meis1-driven model of AML. From the text:
To address the anti-leukemic and differentiation effect of DHODH inhibition in vivo, we chose a syngeneic retroviral transduction model of AML. In this model, bone marrow cells are transduced with MSCV-based retrovirus expressing both HoxA9 and Meis1 oncoproteins and introduced intravenously into recipient mice that have been pre-conditioned with a sub-lethal dose of radiation. Mice that developed acute myeloid leukemia were sacrificed and bone marrow cells were expanded in vitro in media supplemented with SCF and IL-3. To permit easy tracking in vivo, leukemic cells were transduced with lentivirus expressing the Venus fluorescent protein, and double-sorted by fluorescence activated cell sorting (FACS) to purity. These Venus-expressing cultured leukemic cells were re-transplanted into pre-conditioned secondary recipient mice, and these secondary recipients were used in all described experiments. […] Mice were treated at six dosages: (1) vehicle Q2D, (2) BRQ 5 mg/kg Q2D, (3) BRQ 10 mg/kg Q2D, (4) BRQ 25 mg/kg Q2D, (5) vehicle days 1+4 of a 7-day schedule or (6) BRQ 25 mg/kg days 1+4 of a 7-day schedule. Scheduled interim euthanasia and leukemia analyses were performed at two planned time points (FIG. 6A).

The structures appear in SMILES notation.

Chain of recombinant human DHODH protein (Q02127 whole entry): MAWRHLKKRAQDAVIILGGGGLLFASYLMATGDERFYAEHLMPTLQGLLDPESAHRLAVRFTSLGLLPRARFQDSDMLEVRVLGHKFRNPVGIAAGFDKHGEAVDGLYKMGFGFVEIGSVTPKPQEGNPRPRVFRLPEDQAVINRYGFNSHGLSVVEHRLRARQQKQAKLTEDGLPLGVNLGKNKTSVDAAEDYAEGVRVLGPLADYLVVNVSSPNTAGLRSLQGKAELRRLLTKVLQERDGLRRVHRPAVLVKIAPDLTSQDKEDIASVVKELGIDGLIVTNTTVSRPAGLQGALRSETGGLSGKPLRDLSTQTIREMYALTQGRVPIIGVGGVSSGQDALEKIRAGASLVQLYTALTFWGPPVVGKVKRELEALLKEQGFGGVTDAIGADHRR

With `C/C(O)=C(\C#N)C(=O)Nc1ccc(C(F)(F)F)cc1` [teriflunomide, (2Z)-2-cyano-3-hydroxy-N-[4-(trifluoromethyl)phenyl]but-2-enamide], in [1], the DHODH enzyme inhibition entry is listed as “active”. Further, in data set [2], the myeloid differentiation entry is “active”.

On to `CC1=C(/C=C/C(C)=C/C=C/C(C)=C/C(=O)O)C(C)(C)CCC1` [ATRA, all-trans retinoic acid], for which the “overall survival of patients with APL” value in data set [3] is listed as 75%.

On to `O=C(CCNC(=O)c1ccc(OC(F)(F)F)cc1)N[C@@H]1CCCc2ccccc21` [ML390], for which the DHODH enzyme inhibition entry in data set [1] was “DHODH was confirmed as the target”. For the same molecule, in data set [4], the accumulation of dihydroorotate was more than 500 fold; the “uridine and downstream metabolites” value was “depletion of uridine and other downstream metabolites”. Also, the “protein O-GlcNAc modification” value in data set [5] is “global reduction of protein O-GlcNAc modification”. Moreover, the solubility result in data set [6] was “low”. The bioavailability result in [7] is “low”. The “effect of uridine supplementation of the media on differentiation” value (from here on “effect … on differentiation”) in data set [2] was “abrogated the differentiation effect”.

Regarding `Nc1ccn([C@@H]2O[C@H](CO)[C@@H](O)[C@@H]2O)c(=O)n1` [cytarabine], the myeloid differentiation entry in [2] is reported as “cytotoxicity without differentiation”.

Take `CN(Cc1cnc2nc(N)nc(N)c2n1)c1ccc(C(=O)N[C@@H](CCC(=O)O)C(=O)O)cc1` [methotrexate]: in data set [2], the myeloid differentiation result is “cytotoxicity without differentiation”.

Take `Cc1c(-c2ccc(-c3ccccc3F)cc2)nc2ccc(F)cc2c1C(=O)O` [brequinar sodium]: the DHODH enzyme inhibition entry in [1] is reported as “active”. The myeloid differentiation entry in data set [2] is “active”.

`O=C(CCNC(=O)c1ccc(Cl)cc1)N[C@@H]1CCCc2ccccc21` [(R)-C07]: the DHODH enzyme inhibition entry in data set [1] is listed as “inhibitors of DHODH”. Moreover, in data set [2], the myeloid differentiation result is reported as “triggered myeloid differentiation” and the “effect … on differentiation” value is given as “abrogated the differentiation effect”.

Take `COc1cccc2c1C(=O)c1c(O)c3c(c(O)c1C2=O)C[C@@](O)(C(C)=O)C[C@@H]3O[C@H]1C[C@H](N)[C@H](O)[C@H](C)O1` [daunorubicin]: the myeloid differentiation result in [2] is reported as “cytotoxicity without differentiation”.

`O=C(O)c1cccnc1Nc1ccc(Cl)cc1` [Compound C03]: the “differentiation (upregulation of CD11b expression)” value in data set [8] is recorded as “promoted differentiation”. Moreover, the “differentiation (upregulation of CD11b expression)” value in data set [9] is reported as “promoted differentiation”. The DHODH enzyme inhibition entry in [1] is “inhibitors of DHODH”. In data set [2], the myeloid differentiation entry is listed as “triggered myeloid differentiation” and the “effect … on differentiation” value is “abrogated the differentiation effect”.

As for `Cc1oncc1C(=O)Nc1ccc(C(F)(F)F)cc1` [leflunomide, 5-methyl-N-[4-(trifluoromethyl)phenyl]-isoxazole-4-carboxamide], the leukemic burden result in data set [10] (25 mg/kg daily) is recorded as “did not result in a reduction in leukemic burden”. Moreover, the “expression of the differentiation marker CD11b” value in [10] (25 mg/kg daily (highest dosage)) is on record as “very mild increase”. For the same molecule, the myeloid differentiation entry in [2] is “active”.

Turning to `NC(=O)c1[nH]nc([C@@H]2O[C@H](CO)[C@@H](O)[C@H]2O)c1O` [pyrazofurin], in data set [2], the myeloid differentiation entry is “phenocopied the differentiation effect of DHODH inhibition” and the “effect … on differentiation” value is given as “abrogated the differentiation effect”.
